We go through 4 compounds from article PMC9313945, “Peptide Aggregation Induced Immunogenic Rupture (PAIIR)” (Advanced Science, 2022).

For assay [1], the system named is OVCAR‐8 cells. Briefly: Live-dead imaging of OVCAR-8 cells. The format is cell-based, human. The following applies: OVCAR-8, 0.5 mM peptide, 6 h, RPMI with 10% FBS; negative peptide added first, then positive. The procedure: We used the human ovarian cancer cell line OVCAR‐8 as our initial model to identify the effect of the peptides on cells. All cell culture experiments were performed in an RPMI cell culture medium with 10% FBS. At 0.5 mM (i.e., above the overall CAC), the individual peptides mixed on the cells by promptly adding the first negative, then positive counterparts. The viability of the cells was measured for 6h through live‐dead imaging (Figure 3A). […] Because the peptides, if aggregate, form one‐dimensional structures, the shape of the aggregates is not likely to be effective on the action of the peptides. [II] has the lowest CAC and highest ordered aggregation (Figure 2B–D). Additionally, the equilibrium time of [II] aggregations was the shortest among the tried groups (Table 1 ). These all indicate that [II] peptides have the highest affinity to each other, which creates aggregations strong and fast enough to induce cell death.
To understand the effect of peptide aggregates versus peptides alone on the cell death identified with [WW] and [II], we performed a live/dead assay with individual peptides at 0.5 mM after 6h (Figure 3A). […] Similarly, the negative [WW] […] Positive charged peptides containing W are promiscuous residues for membrane damaging peptides, possibly because of W's “anchoring” role; W is abundant in membrane proteins, particularly near the lipid–water interface.^[ [37], [38] ^]
Positively and negatively charged self‐assembling peptides were mixed 30 min prior to experiment except where otherwise stated. The viability of the cell lines was measured by using CellTiter‐Glo 2.0 Reagent (Promega G9248). The luminescent signal was measured in accordance with the manufacturer's instructions. Measurements were carried out with BioTek Neo2SM microplate reader and relative viability was calculated. Live‐Dead assay was carried out using Viability/Cytotoxicity Assay kit (BIOTIUM 30002). After peptide treatment, cells were treated with calcein and ethidium homodimer in accordance with the manufacturer's instructions. […]

Assay [2] relates to OVCAR‐8 cells. In words: Caspase-3 and GSDME cleavage, western blot. The format is cell-based, human. Particulars: OVCAR-8, 50 µM cisplatin for 24 h. From the text:
Regulated cell death via an inducer is concentration and time‐dependent and therefore controllable. On the other hand, unregulated cell death cannot be controlled to the same extent as it mainly results from mechanical forces or temperature. The unregulated cell death releases an instantaneous burst of DAMPs, while the DAMP release from regulated cell death is prolonged. Therefore, regulated ICD is desired for a controlled immune response. Regulated necrotic cell deaths are caspase‐dependent.^[ [50], [51] ^] To identify whether [II]‐induced cell death is regulated, we analyzed the cleavage of caspase‐3, a known mediator of apoptosis, and GSDME mediated pyroptosis (regulated necrosis).^[ [2], [52] ^] We compared the caspase‐3 cleavage among different cell death modalities; we used cisplatin ‐ a known apoptosis inducer in the OVCAR‐8 cell line.^[ [53] ^] We also used heat treatment to induce multiple cell death modalities, including necrosis, apoptosis, and necroptosis.^[ [54] ^] Additionally, we applied a freeze/thaw (F/T) method, a common technique to induce unregulated necrosis.^[ [55] ^] […]
Protein samples were diluted in Laemmli buffer and boiled for 5 min at 96 °C. […] Lastly, western blotting luminol reagent solution was added on top of the membranes, and chemiluminescence signal was detected by Azure c600 Imaging Biosystems.
On the technique in general: In western blotting, separated proteins are transferred to a membrane and probed.

With KFFIIK, in assay [1], the “Cell viability / cell death, live-dead imaging” value (from here on “Cell viability / cell death”) is “does not cause cell death”.

For EFFWWE, the “Cell viability / cell death” value in assay [1] is “did not show any cell death”.

With `N.N.[Cl][Pt][Cl]` [Cisplatin, cisplatin], in assay [2], the Caspase-3 cleavage result is listed as “showed caspase‐3 cleavage”.

Consider KFFWWK, for which the “Cell viability / cell death” value in assay [1] is reported as “induced the cell death”.
